These results are taken from PubChem BioAssay AID504479 (NMMLSC, 2011).

Among the test systems are BY4741; YBR084C-A; YCL025C; YCR005C; YKL103C; YNL142W.
What all share (assay): TORC1 pathway position of GFP reporter effects – S. cerevisiae, TORC1 bypass vs wild-type strains, mechanism study for yeast TOR pathway modulator project (AID 504479)
Common to all, as to conditions: fluorescence ratio vs DMSO, at 10 µM

[1] abbreviates: RPL19A-GFP in TORC1 bypass strain, stronger effect = lower value.
Where [2] appears, read: AGP1-GFP in TORC1 bypass strain, stronger effect = higher value.
[3] abbreviates: CIT2-GFP in TORC1 bypass strain, stronger effect = higher value.
The mark [4] stands for this setting: LAP4-GFP in TORC1 bypass strain, stronger effect = higher value.
[5] abbreviates: MEP2-GFP in TORC1 bypass strain, stronger effect = higher value.

Calls of active or inactive are those of the source.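 Rule for the calls: active = GFP ratio vs DMSO below 0.65 in a strain, using the primary screen cutoff set for that strain's protein target; inactive = the rest.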

As for `O=C(Oc1c(Cl)cc(Cl)c2cccnc12)c1cccc([N+](=O)[O-])c1`, the GFP ratio vs DMSO was 0.774 (inactive) in the assay on BY4741; 1.12 in the assay on YBR084C-A (setting [1]); 1.18 (inactive) in the assay on YBR084C-A; 0.717 in the assay on YCL025C (setting [2]); 0.875 (inactive) in the assay with YCL025C; 0.791 in the assay with YCR005C (setting [3]). Further, the GFP ratio vs DMSO with YCR005C is 1.07 (inactive); in the assay with YKL103C (setting [4]), 1.15; in the assay on YKL103C it was 1.68; in the assay with YNL142W (setting [5]) it was 1.01; with YNL142W it was 0.95 (inactive).
As to `CCc1ccc(OCC(=O)NNC(=S)NC(=O)C2CC2)c(Br)c1`, the GFP ratio vs DMSO with BY4741 was 1.41 (inactive); with YBR084C-A (setting [1]), 1.03; with YBR084C-A it was 1.15 (inactive); with YCL025C (setting [2]) it was 0.819; with YCL025C it was 1.1 (inactive); in the assay on YCR005C (setting [3]), 0.796. Further, the GFP ratio vs DMSO in the assay on YCR005C was 0.882 (inactive); in the assay on YKL103C (setting [4]), 1.3; in the assay on YKL103C, 2.76; in the assay with YNL142W (setting [5]), 1.13; in the assay on YNL142W, 1.23 (inactive).
As to `CC(=O)SC(C[N+](=O)[O-])c1cn(C(C)=O)c2ccccc12` (stereo unspecified), the GFP ratio vs DMSO in the assay on BY4741 was 0.941 (inactive); in the assay on YBR084C-A (setting [1]), 1.04; with YBR084C-A it was 1.18 (inactive); in the assay on YCL025C (setting [2]), 0.739; with YCL025C, 0.805 (inactive); in the assay on YCR005C (setting [3]), 0.839. The GFP ratio vs DMSO in the assay with YCR005C was 0.9 (inactive); with YKL103C (setting [4]), 1.4; in the assay with YKL103C it was 1.8; with YNL142W (setting [5]), 0.918; in the assay on YNL142W it was 0.743 (inactive).
For `Cc1ccc(S(=O)(=O)c2ncccc2[N+](=O)[O-])cc1`, the GFP ratio vs DMSO is 1.09 (inactive) with BY4741; 0.99 in the assay on YBR084C-A (setting [1]); 1.04 (inactive) in the assay with YBR084C-A; 0.888 in the assay on YCL025C (setting [2]); 0.84 (inactive) with YCL025C; 0.847 in the assay with YCR005C (setting [3]). The GFP ratio vs DMSO in the assay on YCR005C is 0.688 (inactive); in the assay with YKL103C (setting [4]), 1.5; in the assay on YKL103C, 1.82; with YNL142W (setting [5]), 1.01; in the assay on YNL142W, 0.788 (inactive).
As to `c1ccc(-c2cccc(-c3ccccn3)n2)nc1`, the GFP ratio vs DMSO in the assay on BY4741 was 0.833 (inactive); with YBR084C-A (setting [1]), 0.963; with YBR084C-A, 0.926 (inactive); in the assay on YCL025C (setting [2]), 0.927; in the assay with YCL025C it was 0.984 (inactive); in the assay with YCR005C (setting [3]), 0.688. The GFP ratio vs DMSO in the assay with YCR005C is 0.683 (inactive); in the assay on YKL103C (setting [4]) it was 1.2; in the assay with YKL103C, 1.5; with YNL142W (setting [5]), 1; with YNL142W it was 0.847 (inactive).
For `COc1ccc(/C=C/C(=O)NC(=S)NNC(=O)c2cnccn2)cc1`, the GFP ratio vs DMSO is 0.962 (inactive) with BY4741; 0.981 with YBR084C-A (setting [1]); 0.94 (inactive) in the assay on YBR084C-A; 0.694 with YCL025C (setting [2]); 0.807 (inactive) in the assay with YCL025C; 0.87 with YCR005C (setting [3]). Moreover, the GFP ratio vs DMSO in the assay on YCR005C was 1.03 (inactive); in the assay on YKL103C (setting [4]), 1.18; in the assay with YKL103C, 1.51; in the assay with YNL142W (setting [5]), 1.03; with YNL142W, 1.14 (inactive).
With `Cc1ccc(C(=O)NNC(=S)NC(=O)COc2ccccc2)cc1`, the GFP ratio vs DMSO with BY4741 was 1.29 (inactive); in the assay on YBR084C-A (setting [1]), 1.22; in the assay with YBR084C-A it was 1.27 (inactive); in the assay on YCL025C (setting [2]), 0.914; in the assay with YCL025C, 1.11 (inactive); in the assay with YCR005C (setting [3]) it was 0.861. Further, the GFP ratio vs DMSO was 0.988 (inactive) with YCR005C; 1.45 in the assay on YKL103C (setting [4]); 2.49 in the assay on YKL103C; 1.25 with YNL142W (setting [5]); 1.22 (inactive) in the assay with YNL142W.
On to `CCSc1nnc(NC(=O)c2ccccn2)s1`, for which the GFP ratio vs DMSO in the assay on BY4741 was 0.875 (inactive); with YBR084C-A (setting [1]), 0.97; in the assay on YBR084C-A, 0.972 (inactive); with YCL025C (setting [2]) it was 0.987; with YCL025C, 0.979 (inactive); in the assay with YCR005C (setting [3]), 0.867. Further, the GFP ratio vs DMSO in the assay on YCR005C is 0.907 (inactive); in the assay with YKL103C (setting [4]) it was 1.14; in the assay with YKL103C, 1.2 (inactive); with YNL142W (setting [5]), 1.06; in the assay on YNL142W, 1.01 (inactive).
In the case of `Cc1ccc(/C=C2/C(=O)ON=C2c2ccccc2)o1`, the GFP ratio vs DMSO with BY4741 was 0.941 (inactive); in the assay on YBR084C-A (setting [1]) it was 0.962; with YBR084C-A, 1 (inactive); in the assay with YCL025C (setting [2]), 0.642; in the assay on YCL025C, 0.87 (inactive); with YCR005C (setting [3]) it was 0.898. Moreover, the GFP ratio vs DMSO is 1.23 (inactive) in the assay with YCR005C; 1.15 in the assay on YKL103C (setting [4]); 1.99 in the assay with YKL103C; 1.21 in the assay on YNL142W (setting [5]); 1.23 (inactive) in the assay with YNL142W.
For `CCOC(=O)c1c(C)oc2c1c(C(c1cccnc1)N1CCOCC1)c(O)c1ccccc12` (stereo unspecified), the GFP ratio vs DMSO was 1.09 (inactive) in the assay on BY4741; 1.1 with YBR084C-A (setting [1]); 0.914 (inactive) in the assay with YBR084C-A; 0.642 in the assay on YCL025C (setting [2]); 0.972 (inactive) in the assay with YCL025C; 0.839 with YCR005C (setting [3]). In addition, the GFP ratio vs DMSO is 1.12 (inactive) in the assay with YCR005C; 1.21 with YKL103C (setting [4]); 2.09 with YKL103C; 1.08 in the assay with YNL142W (setting [5]); 1.27 (inactive) in the assay on YNL142W.
As for `O=C1ON=C(c2ccccc2)/C1=C/c1ccco1`, the GFP ratio vs DMSO in the assay with BY4741 is 0.912 (inactive); in the assay with YBR084C-A (setting [1]), 0.972; in the assay on YBR084C-A, 0.965 (inactive); in the assay with YCL025C (setting [2]), 0.65; in the assay on YCL025C, 0.853 (inactive); in the assay with YCR005C (setting [3]), 0.825. In addition, the GFP ratio vs DMSO in the assay on YCR005C is 1.34 (inactive); in the assay with YKL103C (setting [4]), 1.17; in the assay with YKL103C, 1.64; with YNL142W (setting [5]), 1.01; with YNL142W, 1.03 (inactive).
For the molecule `Cc1ccc(S(=O)(=O)c2ccc([N+](=O)[O-])cn2)cc1`, the GFP ratio vs DMSO is 0.941 (inactive) with BY4741; 0.938 with YBR084C-A (setting [1]); 0.929 (inactive) with YBR084C-A; 0.813 with YCL025C (setting [2]); 1.11 (inactive) in the assay on YCL025C; 0.861 in the assay on YCR005C (setting [3]). Besides, the GFP ratio vs DMSO with YCR005C is 1.05 (inactive); in the assay with YKL103C (setting [4]), 1.67; in the assay on YKL103C, 2.26; in the assay with YNL142W (setting [5]), 0.948; in the assay with YNL142W, 1.29 (inactive).
On to `O=C(NC(=S)NNC(=O)c1cnccn1)c1ccc(F)cc1`, for which the GFP ratio vs DMSO with BY4741 is 0.925 (inactive); with YBR084C-A (setting [1]) it was 0.827; in the assay with YBR084C-A, 0.877 (inactive); in the assay on YCL025C (setting [2]), 0.606; in the assay on YCL025C it was 0.808 (inactive); in the assay with YCR005C (setting [3]) it was 0.691. Besides, the GFP ratio vs DMSO in the assay on YCR005C was 0.716 (inactive); in the assay with YKL103C (setting [4]), 1.35; with YKL103C, 1.64; with YNL142W (setting [5]), 0.971; with YNL142W, 1.07 (inactive).
As to `CC(=O)c1ccc(N2CCN(C(=O)c3ccc(Br)cc3)CC2)c(F)c1`, the GFP ratio vs DMSO with BY4741 was 1.18 (inactive); in the assay on YBR084C-A (setting [1]), 1.33; with YBR084C-A, 1.28 (inactive); in the assay with YCL025C (setting [2]) it was 1.42; with YCL025C, 1.17 (inactive); in the assay on YCR005C (setting [3]), 1.12. The GFP ratio vs DMSO with YCR005C is 1.85; in the assay on YKL103C (setting [4]), 1.27; in the assay with YKL103C it was 1.94; in the assay on YNL142W (setting [5]), 1.25; in the assay on YNL142W, 1.3 (inactive).
`COc1ccc([N+](=O)[O-])c(S(=O)(=O)c2ccccc2)n1`: the GFP ratio vs DMSO was 0.896 (inactive) in the assay on BY4741; 0.924 in the assay with YBR084C-A (setting [1]); 0.967 (inactive) with YBR084C-A; 0.971 in the assay on YCL025C (setting [2]); 1.14 (inactive) in the assay with YCL025C; 0.862 in the assay with YCR005C (setting [3]). The GFP ratio vs DMSO in the assay on YCR005C was 0.792 (inactive); with YKL103C (setting [4]), 1.33; with YKL103C, 1.97; in the assay on YNL142W (setting [5]), 0.877; in the assay on YNL142W, 1.03 (inactive).
Regarding `Cc1ccc(C2=NOC(=O)/C2=C\c2ccc(C)o2)cc1`, the GFP ratio vs DMSO in the assay on BY4741 is 1.74 (inactive); with YBR084C-A (setting [1]) it was 0.949; in the assay on YBR084C-A, 1.01 (inactive); in the assay with YCL025C (setting [2]) it was 0.701; with YCL025C it was 0.907 (inactive); in the assay with YCR005C (setting [3]), 1.1. Moreover, the GFP ratio vs DMSO was 1.24 (inactive) with YCR005C; 0.971 in the assay with YKL103C (setting [4]); 1.52 with YKL103C; 1.49 in the assay with YNL142W (setting [5]); 1.24 (inactive) with YNL142W.
